The results in this text go back to patent US10556878B2, “Thiourea compounds and their use as inhibitors of Sirt2 or Sirt5” (CORNELL UNIVERSITY, priority 2013, dated 2020).

Each structure is given as a SMILES string. pIC50: −log10 of the molar value.

One experiment addresses T1, Sirt1 (Homo sapiens, UniProt Q96EB6).
T1 sequence (Q96EB6 1-747): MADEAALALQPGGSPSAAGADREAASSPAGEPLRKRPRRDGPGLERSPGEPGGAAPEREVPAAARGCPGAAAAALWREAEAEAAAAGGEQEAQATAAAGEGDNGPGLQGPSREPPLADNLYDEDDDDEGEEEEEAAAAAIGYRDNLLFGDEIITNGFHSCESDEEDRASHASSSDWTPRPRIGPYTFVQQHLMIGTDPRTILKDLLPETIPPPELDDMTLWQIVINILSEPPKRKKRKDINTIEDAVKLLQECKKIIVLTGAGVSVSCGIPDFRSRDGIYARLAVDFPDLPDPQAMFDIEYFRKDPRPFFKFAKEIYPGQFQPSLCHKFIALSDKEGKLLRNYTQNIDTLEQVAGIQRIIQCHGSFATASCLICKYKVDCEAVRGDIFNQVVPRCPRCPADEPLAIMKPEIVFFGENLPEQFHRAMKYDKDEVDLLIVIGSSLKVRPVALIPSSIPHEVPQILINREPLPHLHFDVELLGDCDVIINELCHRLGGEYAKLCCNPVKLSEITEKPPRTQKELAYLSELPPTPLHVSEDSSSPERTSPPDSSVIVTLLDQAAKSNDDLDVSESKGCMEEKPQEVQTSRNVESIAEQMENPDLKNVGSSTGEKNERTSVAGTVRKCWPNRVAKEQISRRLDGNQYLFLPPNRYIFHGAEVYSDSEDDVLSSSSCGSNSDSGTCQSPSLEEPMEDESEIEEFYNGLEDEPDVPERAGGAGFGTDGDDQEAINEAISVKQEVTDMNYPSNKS
The experiment is described as follows: sirtuin inhibition IC50, Sirt1. Conditions: Table 1; NI = no inhibition at 256 μM. Format: biochemical.

The target of a further experiment is T2, Sirt2 (Homo sapiens, UniProt Q8IXJ6).
T2 sequence (Q8IXJ6 1-389): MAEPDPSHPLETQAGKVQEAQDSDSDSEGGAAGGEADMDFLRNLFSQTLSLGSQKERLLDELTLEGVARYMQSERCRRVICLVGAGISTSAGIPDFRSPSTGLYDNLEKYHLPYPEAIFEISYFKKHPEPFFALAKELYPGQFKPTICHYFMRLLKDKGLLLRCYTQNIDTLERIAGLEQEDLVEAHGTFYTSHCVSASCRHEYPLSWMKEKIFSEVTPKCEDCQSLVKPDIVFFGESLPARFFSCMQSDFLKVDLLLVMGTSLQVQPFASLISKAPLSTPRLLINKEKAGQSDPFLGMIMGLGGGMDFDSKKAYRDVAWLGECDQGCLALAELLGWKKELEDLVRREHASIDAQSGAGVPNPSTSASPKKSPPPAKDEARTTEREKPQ
The experiment is described as follows: sirtuin inhibition IC50, Sirt2. Format: biochemical.

Experiment [1] addresses T3, Sirt5 (Homo sapiens, UniProt Q9NXA8).
T3 sequence (Q9NXA8 37-310): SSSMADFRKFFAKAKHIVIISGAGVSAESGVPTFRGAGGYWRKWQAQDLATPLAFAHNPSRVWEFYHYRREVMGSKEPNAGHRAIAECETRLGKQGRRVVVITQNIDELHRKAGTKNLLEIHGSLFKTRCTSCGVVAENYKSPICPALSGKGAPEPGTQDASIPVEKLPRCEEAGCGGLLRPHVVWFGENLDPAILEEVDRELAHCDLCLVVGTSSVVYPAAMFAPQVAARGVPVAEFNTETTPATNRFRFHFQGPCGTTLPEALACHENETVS
The experiment is described as follows: sirtuin inhibition IC50, Sirt5-catalyzed desuccinylation. Type of experiment: biochemical.

For another experiment, the target named is T4, Sirt3 (Homo sapiens, UniProt Q9NTG7).
T4 sequence (Q9NTG7 1-399): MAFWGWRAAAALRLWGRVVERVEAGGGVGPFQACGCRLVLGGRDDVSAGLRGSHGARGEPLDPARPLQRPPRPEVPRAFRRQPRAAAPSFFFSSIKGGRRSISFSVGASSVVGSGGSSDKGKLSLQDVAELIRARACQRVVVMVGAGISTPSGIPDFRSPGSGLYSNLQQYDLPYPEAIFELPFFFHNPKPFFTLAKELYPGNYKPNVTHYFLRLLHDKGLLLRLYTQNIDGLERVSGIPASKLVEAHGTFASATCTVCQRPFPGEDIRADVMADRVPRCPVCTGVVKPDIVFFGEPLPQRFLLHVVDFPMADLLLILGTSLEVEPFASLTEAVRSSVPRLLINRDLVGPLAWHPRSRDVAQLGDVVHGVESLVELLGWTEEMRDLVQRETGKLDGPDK
The experiment in a line: sirtuin inhibition IC50, Sirt3. Conditions: Table 1; NI = no inhibition at 256 μM. Format: biochemical.

The target in experiment [2] is T3, Sirt5. The experiment is described as follows: LC-MS analysis of reaction mixture with Sirt5 and NAD (mechanism-based inhibition). Format: biochemical. Conditions: LC / MS detection. On the procedure: To further confirm that the thiourea compound 5 is a mechanism-based inhibitor, the reaction mixture was analyzed by liquid chromatography-mass spectrometry (LC-MS). An ion with m/z of 1028.17 (corresponding to Compound 7a or protonated Compound 7b or 7c) was detected only when Compound 5 was incubated with both Sirt5 and NAD for 15 minutes, but not in negative controls without Sirt5 or NAD. In addition to Compound 7a or protonated Compound 7b or 7c, two new ions with m/z of 356.33 (corresponding to Compound 1) and 471.42 (corresponding to Compound 10) were also observed when Compound 5 was incubated with both Sirt5 and NAD, but not in negative controls without Sirt5 or NAD. Both Compounds 1 and 10 can be derived from the regular Sirt5-catalyzed deacylation reaction of Compound 7a (herein denoted as pathway A, as discussed in A. A. Sauve, et al., Annu. Rev. Biochem., 75, 435-465, 2006) or by an alternative hydrolysis pathway of 7a that is different from the regular sirtuin-catalyzed deacylation pathway (herein denoted as pathway B). […]
The foregoing results are likely responsible for Compound 3b being a less capable inhibitor of Sirt5 compared to Compound 5. […] The decomposition of the covalent intermediate occurs mainly through the Sirt5-catalyzed deacylation pathway A as the major product detected is Compound 1 with an m/z of 356.33.
The intermediate (7a/7b/7c) is readily detected by LC. […]

Another experiment concerns HeLa cell lines. The experiment is described as follows: protein succinylation Western blot in HeLa cells. Type of experiment: cell-based. Conditions: 100 μM, 24 and 48 hours. The procedure:
FIGS. 3A and 3B show the results of treatment of HeLa cell lines with 100 μM YC6-18e at time points of 24 and 48 hours, and FIG. 3C is the structure of YC6-18e. […] The results reveal that treatment with Compound YC6-18e can increase protein lysine succinylation. It was observed that the loading is lower for 48 hours but the succinylation intensity is slightly higher.

A further experiment deals with MCF-7. The experiment in a line: inhibition of MCF-7 cancer cells, crystal violet staining after 10 days. Format: cell-based, human. Conditions: 25, 50, 75, 100 μM. On the procedure:
15,000 cells were seeded in each well and treated with 25, 50, 75, and 100 μM YC6-18 and YC6-18e. Media with the inhibitor/DMSO was changed every three days. Cells were stained with crystal violet after growing for 10 days. The results are shown in FIG. 5A (for YC-6-18) and FIG. 5B (for YC-6-18e).

In a further experiment the test system is MDA-MB-231. The experiment in a line: foci formation, MDA-MB-231. Type of experiment: cell-based, human. Conditions: tested at 10, 25, 50, 100 μM. On the procedure:
(§1) Each cancer cell line was assayed under the following six conditions: (1) untreated, (2) DMSO, (3) 15-2e at 10 μM, (4) 15-2e at 25 μM, (5) 15-2e at 50 μM, and (6) 15-2e at 100 μM.

The next experiment has as its system MDA-MB-468. The experiment in a line: foci formation, MDA-MB-468. Format: cell-based, human. Conditions: tested at 10, 25, 50, 100 μM. The procedure:
as §1

For a further experiment, the system named is MCF-7 cells. The experiment is described as follows: foci formation, MCF-7. Format: cell-based, human. Conditions: tested at 10, 25, 50, 100 μM. The procedure:
as §1

Setting [3] is: Table 1, NI = no inhibition at 256 μM.

Consider `CCCCCCCNC(=S)NCCCCC(NC(=O)OCc1ccccc1)C(=O)Nc1ccccc1` (stereo not shown) [Compound 6], for which the pIC50 was 4.19 against Sirt1, 6.70 at Sirt2 (setting [3]) and < 3.59 against Sirt5 [1] (setting [3]).

As for `O=C(O)CCNC(=S)NCCCCC(NC(=O)OCc1ccccc1)C(=O)Nc1ccc(O)cc1` (stereo not shown) [YC6-04], the pIC50 at Sirt5 [1] (Table 2, NI = no inhibition) is 5.48.

Take `O=C(O)CCCC(=S)NCCCC[C@H](NC(=O)OCc1ccccc1)C(=O)Nc1ccccc1` [Compound 3b]: the negative logarithm of the IC50 (pIC50) is < 3.59 against Sirt1, < 3.59 at Sirt2 (setting [3]), < 3.59 against Sirt3 and 4.37 against Sirt5 [1] (setting [3]). In addition, the “covalent intermediate with NAD in the presence of Sirt5” value at Sirt5 [2] is on record as “hardly detectable by LC”.

The compound `NS(=O)(=O)c1cc(C(=O)NC(CCCCNC(=S)NCCC(=O)O)C(=O)Nc2cccc(O)c2)ccc1Cl` (stereo not shown) [YC6-14] gave a pIC50 at Sirt5 [1] (Table 2, NI = no inhibition) of 5.52.

On Sirt5 [1] (Table 2, NI = no inhibition), `O=C(O)CCNC(=S)NCCCCC(NC(=O)OCc1ccccc1)C(=O)Nc1ccccc1O` (stereo not shown) [YC6-07] had a pIC50 of 5.72.

On Sirt5 [1] (Table 2, NI = no inhibition), `CC(=O)NC(CCCCNC(=S)NCCC(=O)O)C(=O)Nc1cccc(O)c1` (stereo not shown) [YC6-17] showed a pIC50 of 4.87.

As to `CCOC(=O)CCNC(=S)NCCCCC(NC(=O)OCc1ccccc1)C(=O)NC1CCSc2ccccc21` (stereo not shown) [YC6-18e], the pIC50 on Sirt2 (Table 2, NI = no inhibition) is 5.41; against Sirt5 [1] (Table 2, NI = no inhibition), < 3.78. In addition, the “succinylation level on proteins” value in the experiment on HeLa cell lines is “increased the succinylation level on proteins at 24 and 48 hours”. Moreover, the “killing of MCF-7 cells” value in the experiment on MCF-7 is given as “very effective in killing MCF-7 at 25 μM concentration”.

`CC(C)(C)OC(=O)NC(CCCCNC(=S)NCCC(=O)O)C(=O)Nc1cccc(O)c1` (stereo not shown) [YC6-09] had a negative logarithm of the IC50 (pIC50) against Sirt5 [1] (Table 2, NI = no inhibition) of 5.36.

In the case of `CCOC(=O)CCNC(=S)NCCCCC(NC(=O)OCc1ccccc1)C(=O)Nc1cccc(O)c1` (stereo not shown) [Compound I5-2e], the negative-log IC50 (pIC50) on Sirt2 (Table 2, NI = no inhibition) is 5.15; against Sirt5 [1] (Table 2, NI = no inhibition), < 3.70. At Sirt5 [1] (Table 2, at 200 μM (footnote 3), read-out: inhibition of SIRT5 (in brackets under IC50)), the inhibition at 200 µM came out at 30%. The “concentration from which foci formation is inhibited” value with MDA-MB-231, in the experiment on MDA-MB-468 and in the experiment on MCF-7 cells was “about 25 μM” throughout.

At Sirt5 [1] (Table 2, NI = no inhibition), `O=C(O)CCNC(=S)NCCCCC(NC(=O)OCc1ccccc1)C(=O)Nc1cccc(O)c1` (stereo not shown) [Compound I5-2] showed a pIC50 of 6.05.

`O=C(O)CCNC(=S)NCCCCC(NC(=O)OCc1ccccc1)C(=O)NC1CCSc2ccccc21` (stereo not shown) [YC6-18] had a pIC50 against Sirt5 [1] (Table 2, NI = no inhibition) of 6.35. Besides, the “killing of MCF-7 cells” value with MCF-7 is listed as “almost no effect”.

Take `O=C(O)CCC(=S)NCCCCC(NC(=O)OCc1ccccc1)C(=O)Nc1ccccc1` (stereo not shown) [Compound 3a, reference compound]: the pIC50 against Sirt1 was < 3.59; on Sirt2 (setting [3]), < 3.59; at Sirt3, < 3.59; at Sirt5 [1] (setting [3]), < 3.30. The compound further returned an inhibition at 500 µM against Sirt5 [1] (at 500 μM) of 20%.
